Test results: patent publication US9676704B2, “Pesticidal compositions and processes related thereto” (Dow AgroSciences LLC, priority 2014, dated 2017)

Experiments:
[1] = tested on: Beet Armyworm (BAW); assay: Bioassays on BAW, 128-well diet tray assay; assay type: in vivo; conditions: Spodoptera exigua; for mortality at 50 µg/cm2: 168 h, 50 μg/cm^2 on artificial diet, second instar larvae, five to seven days, 25° C., read-out: BAW % Control (or Mortality) rating; for mortality at 0.05 µg/cm2: 0.05 μg/cm^2; for mortality at 0.05 µg/cm2 / mortality at 0.5 µg/cm2 / mortality at 5 µg/cm2: read-out: BAW Percent control (or mortality); for mortality at 0.5 µg/cm2: 0.5 μg/cm^2; for mortality at 5 µg/cm2: 5 μg/cm^2
Experimental: Bioassays on BAW were conducted using a 128-well diet tray assay. one to five second instar BAW larvae were placed in each well (3 mL) of the diet tray that had been previously filled with 1 mL of artificial diet to which 50 μg/cm^2 of the test compound (dissolved in 50 μL of 90:10 acetone-water mixture) had been applied (to each of eight wells) and then allowed to dry. Trays were covered with a clear self-adhesive cover, and held at 25° C., 14:10 light-dark for five to seven days. Percent mortality was recorded for the larvae in each well; activity in the eight wells was then averaged. The results are indicated in the tables entitled “Table ABC: Assay Results (F)”, “Table ABCD: Assay Results (C)”, and “Table ABCDE: Assay Results (P)” (See Table Section).
(§1) Bioassays on BAW and CL were conducted according to the procedures outlined in Example A: Bioassays on Beet Armyworm (“BAW”) and Cabbage Looper (“CL”) using the following concentrations: 5, 0.5, and 0.05 μg/cm^2.

[2] = tested on: Cabbage Looper (CL); assay: Bioassays on CL, 128-well diet tray assay; assay type: in vivo; conditions: Trichoplusia ni; for mortality at 50 µg/cm2: 168 h, 50 μg/cm^2 on artificial diet, second instar larvae, five to seven days, 25° C., read-out: CL % Control (or Mortality) rating; for mortality at 0.05 µg/cm2: 0.05 μg/cm^2; for mortality at 0.05 µg/cm2 / mortality at 0.5 µg/cm2 / mortality at 5 µg/cm2: read-out: CL Percent control (or mortality); for mortality at 0.5 µg/cm2: 0.5 μg/cm^2; for mortality at 5 µg/cm2: 5 μg/cm^2
Experimental: Bioassays on CL were conducted using a 128-well diet tray assay. One to five second instar CL larvae were placed in each well (3 mL) of the diet tray that had been previously filled with 1 mL of artificial diet to which 50 μg/cm^2 of the test compound (dissolved in 50 μL of 90:10 acetone-water mixture) had been applied (to each of eight wells) and then allowed to dry. Trays were covered with a clear self-adhesive cover, and held at 25° C., 14:10 light-dark for five to seven days. Percent mortality was recorded for the larvae in each well; activity in the eight wells was then averaged. The results are indicated in the table entitled “Table ABC: Assay Results (F)”, “Table ABCD: Assay Results (C)”, and “Table ABCDE: Assay Results (P)” (See Table Section).
as §1

[3] = tested on: Yellow Fever Mosquito (YFM); assay type: in vivo, Aedes aegypti; conditions: 15 μL of diluted 4000 ppm master solution per well, about 1 day-old larvae, 3 days
Experimental: Master plates containing 400 μg of a molecule dissolved in 100 μL of dimethyl sulfoxide (DMSO) (equivalent to a 4000 ppm solution) are used. A master plate of assembled molecules contains 15 μL per well. To this plate, 135 μL of a 90:10 water:acetone mixture is added to each well. A robot (Biomek® NXP Laboratory Automation Workstation) is programmed to dispense 15 μL aspirations from the master plate into an empty 96-well shallow plate (“daughter” plate). There are 6 reps (“daughter” plates) created per master. The created daughter plates are then immediately infested with YFM larvae. The day before plates are to be treated, mosquito eggs are placed in Millipore water containing liver powder to begin hatching (4 g. into 400 mL). After the daughter plates are created using the robot, they are infested with 220 μL of the liver powder/larval mosquito mixture (about 1 day-old larvae). After plates are infested with mosquito larvae, a non-evaporative lid is used to cover the plate to reduce drying. Plates are held at room temperature for 3 days prior to grading. After 3 days, each well is observed and scored based on mortality. The results are indicated in the table entitled “Table ABC: Assay Results (F)” and “Table ABCD: Assay Results (C)” (See Table Section). Pesticidally Acceptable Acid Addition Salts, Salt Derivatives, Solvates, Ester Derivatives, Polymorphs, Isotopes and Radionuclides

SMILES	mortality at 50 µg/cm2 [1] [%]	mortality at 50 µg/cm2 [2] [%]	YFM % Control (or Mortality) rating [3]	mortality at 0.05 µg/cm2 [1] [%]	mortality at 0.5 µg/cm2 [1] [%]	mortality at 5 µg/cm2 [1] [%]	mortality at 0.05 µg/cm2 [2] [%]	mortality at 0.5 µg/cm2 [2] [%]	mortality at 5 µg/cm2 [2] [%]
C[C@H](NC(=O)CCC(C)(C)C)NC(=O)c1ccc(/C=C/C(c2cc(Cl)c(Cl)c(Cl)c2)C(F)(F)F)cc1C(F)(F)F (stereo partly drawn) [Compound F17, N—((R)-1-(4,4-Dimethylpentanamido)ethyl)-4-((E)-4,4,4-trifluoro-3-(3,4,5-trichlorophenyl)but-1-en-1-yl)-2-(trifluoromethyl)benzamide]	50 to 100	50 to 100	A (80-100)	–	–	–	–	–	–
Cc1cc(/C=C/C(c2cc(Br)c(Cl)c(Br)c2)C(F)(F)F)ccc1C(=O)N[C@H](C)NC(=O)CC(F)(F)F (stereo partly drawn) [Compound P6, 4-((E)-3-(3,5-Dibromo-4-chlorophenyl)-4,4,4-trifluorobut-1-en-1-yl)-2-methyl-N—((R)-1-(3,3,3-trifluoropropanamido)ethyl)benzamide]	50 to 100	50 to 100	A (80-100)	–	–	–	–	–	–
CN(CCNC(=O)c1ccc(/C=C/C(c2cc(Cl)c(Cl)c(Cl)c2)C(F)(F)F)cc1C(F)(F)F)C(=O)CC(F)(F)F (stereo not drawn) [Compound F20, (E)-4-(4,4,4-trifluoro-3-(3,4,5-trichlorophenyl)but-1-en-1-yl)-N-(2-(3,3,3-trifluoro-N-methylpropanamido)ethyl)-2-(trifluoromethyl)benzamide]	50 to 100	50 to 100	A (80-100)	–	–	–	–	–	–
C[C@H](NC(=O)CCC(F)(F)F)NC(=O)c1ccc(/C=C/C(c2cc(Cl)c(Cl)c(Cl)c2)C(F)(F)F)cc1Br (stereo partly drawn) [Compound P27, 2-Bromo-4-((E)-4,4,4-trifluoro-3-(3,4,5-trichlorophenyl)but-1-en-1-yl)-N—((R)-1-(4,4,4-trifluorobutanamido)ethyl)benzamide]	50 to 100	50 to 100	B (More than 0-Less than 80)	0	0	7	0	7	100
CN(NC(=O)c1ccc(/C=C/C(c2cc(Cl)c(Cl)c(Cl)c2)C(F)(F)F)cc1C(F)(F)F)C(=O)CCC(F)(F)F (stereo not drawn) [Compound F23, (E)-N′-Methyl-4-(4,4,4-trifluoro-3-(3,4,5-trichlorophenyl)but-1-en-1-yl)-N′-(4,4,4-trifluorobutanoyl)-2-(trifluoromethyl)benzohydrazide]	50 to 100	50 to 100	A (80-100)	–	–	–	–	–	–
CN(NC(=O)c1ccc(/C=C/C(c2cc(Cl)c(Cl)c(Cl)c2)C(F)(F)F)cc1C(F)(F)F)C(=O)CC(F)(F)F (stereo not drawn) [Compound F22, (E)-N′-methyl-4-(4,4,4-trifluoro-3-(3,4,5-trichlorophenyl)but-1-en-1-yl)-2-(trifluoromethyl)-N′-(3,3,3-trifluoropropanoyl)benzohydrazide]	50 to 100	50 to 100	A (80-100)	–	–	–	–	–	–
C[C@H](NC(=O)CCCC(C)(C)C)NC(=O)c1ccc(/C=C/C(c2cc(Cl)c(Cl)c(Cl)c2)C(F)(F)F)cc1C(F)(F)F (stereo partly drawn) [Compound F18, N—((R)-1-(5,5-Dimethylhexanamido)ethyl)-4-((E)-4,4,4-trifluoro-3-(3,4,5-trichlorophenyl)but-1-en-1-yl)-2-(trifluoromethyl)benzamide]	50 to 100	50 to 100	A (80-100)	–	–	–	–	–	–
C[C@H](NC(=O)CC(F)(F)F)NC(=O)c1ccc(/C=C/C(c2cc(Cl)c(Br)c(Cl)c2)C(F)(F)F)cc1C(F)(F)F (stereo partly drawn) [Compound P4, 4-((E)-3-(4-Bromo-3,5-dichlorophenyl)-4,4,4-trifluorobut-1-en-1-yl)-2-(trifluoromethyl)-N—((R)-1-(3,3,3-trifluoropropanamido)ethyl)benzamide]	50 to 100	50 to 100	A (80-100)	–	–	–	–	–	–
C[C@@H](NC(=O)c1ccc(/C=C/C(c2cc(Cl)c(Cl)c(Cl)c2)C(F)(F)F)cc1C(F)(F)F)NC(=O)C1(C#N)CC1 (stereo partly drawn) [Compound F14, N—((S)-1-(1-cyanocyclopropanecarboxamido)ethyl)-4-((E)-4,4,4-trifluoro-3-(3,4,5-trichlorophenyl)but-1-en-1-yl)-2-(trifluoromethyl)benzamide]	50 to 100	50 to 100	A (80-100)	–	–	–	–	–	–
CC[C@H](NC(=O)CCC(F)(F)F)NC(=O)c1ccc(/C=C/C(c2cc(Cl)c(Cl)c(Cl)c2)C(F)(F)F)cc1C(F)(F)F (stereo partly drawn) [Compound F12, 4-((E)-4,4,4-Trifluoro-3-(3,4,5-trichlorophenyl)but-1-en-1-yl)-N—((R)-1-(4,4,4-trifluorobutanamido)propyl)-2-(trifluoromethyl)benzamide]	50 to 100	50 to 100	A (80-100)	–	–	–	–	–	–
Cc1cc(/C=C/C(c2cc(Br)cc(Br)c2)C(F)(F)F)ccc1C(=O)N[C@H](C)NC(=O)CC(F)(F)F (stereo partly drawn) [Compound P7, 4-((E)-3-(3,5-Dibromophenyl)-4,4,4-trifluorobut-1-en-1-yl)-2-methyl-N—((R)-1-(3,3,3-trifluoropropanamido)ethyl)benzamide]	50 to 100	50 to 100	A (80-100)	–	–	–	–	–	–
CC(NC(=O)c1ccc(/C=C/C(c2cc(Cl)c(Cl)c(Cl)c2)C(F)(F)F)cc1C(F)(F)F)NC(=O)C(C)(C)C (stereo in doubt) [Compound F19, N—((S)-1-Pivalamidoethyl)-4-((E)-4,4,4-trifluoro-3-(3,4,5-trichlorophenyl)but-1-en-1-yl)-2-(trifluoromethyl)benzamide]	50 to 100	50 to 100	A (80-100)	–	–	–	–	–	–
CCCCCC(=O)N[C@@H](C)NC(=O)c1ccc(/C=C/C(c2cc(Cl)c(Cl)c(Cl)c2)C(F)(F)F)cc1C(F)(F)F (stereo partly drawn) [Compound F3, N—((R)-1-hexanamidoethyl)-4-((E)-4,4,4-trifluoro-3-(3,4,5-trichlorophenyl)but-1-en-1-yl)-2-(trifluoromethyl)benzamide]	50 to 100	50 to 100	A (80-100)	–	–	–	–	–	–
C[C@H](NC(=O)CC#N)NC(=O)c1ccc(/C=C/C(c2cc(Cl)c(Cl)c(Cl)c2)C(F)(F)F)cc1C(F)(F)F (stereo partly drawn) [Compound F11, N—((R)-1-(2-Cyanoacetamido)ethyl)-4-((E)-4,4,4-trifluoro-3-(3,4,5-trichlorophenyl)but-1-en-1-yl)-2-(trifluoromethyl)benzamide]	50 to 100	50 to 100	A (80-100)	–	–	–	–	–	–
Cc1cc(/C=C/C(c2cc(Br)c(Cl)c(Br)c2)C(F)(F)F)ccc1C(=O)N[C@H](C)NC(=O)CCC(F)(F)F (stereo partly drawn) [Compound P14, 4-((E)-3-(3,5-Dibromo-4-chlorophenyl)-4,4,4-trifluorobut-1-en-1-yl)-2-methyl-N—((R)-1-(4,4,4-trifluorobutanamido)ethyl)benzamide]	50 to 100	50 to 100	A (80-100)	–	–	–	–	–	–
C[C@H](NC(=O)CC(F)(F)F)NC(=O)c1ccc(/C=C/C(c2cc(Cl)c(Cl)c(Cl)c2)C(F)(F)F)cc1Br (stereo partly drawn) [Compound P24]	50 to 100	50 to 100	D (No activity noticed in this bioassay)	0	7	87	6	19	100
